From patent EP0723577B1, “DETERGENT COMPOSITIONS CONTAINING SILVER ANTI-TARNISHING AGENTS” (UNILEVER N.V., priority 1993, dated 1995) come the findings set out here.

The nature of data set [1]: pKa determination by titration of a 0.001M solution with 1N NaOH. In kind it is physicochemical. The protocol:
As used herein, the term "pKa" means a pH value at which 50% of the heterocyclic ring moieties of the compound (particularly the five-membered rings in the case of the purine class compounds) are in ionic form.
The pH of this solution was adjusted to 3.0 with H2SO4. The solution was then titrated with 1N NaOH to pH 11.0. A plot of mls. NaOH vs. pH for each sample was prepared. The pKa of the compound is that point where the maximum change in pH as a function of mls. NaOH is observed.

Data set [2] in a line: Silver plates held in the compositions for 25 minutes, evaluated for tarnishing. As to conditions: for Effective Silver Anti-Tarnishing: 4 wt.% epsilon-phthalimido peroxyhexanoic acid. The protocol: A comparison of anti-tarnishing performance of purine class compounds within the scope of the invention and azole compounds outside the invention was conducted. The selected compounds were incorporated in an amount of 1 wt.% in a machine dishwashing composition containing 4 wt.% epsilon-phthalimido peroxyhexanoic acid as the bleaching agent. The pH values of the compositions were adjusted by the addition of a 50% solution of sodium hydroxide or concentrated sulfuric acid, as necessary.
(§1) Copper plates and silver plates were held in each of the compositions for 25 minutes, removed, rinsed with deionized water and evaluated for tarnishing. […]
A comparison of anti-tarnishing performance of 1,3-N azole compounds within the scope of the invention and azole compounds outside the invention was conducted. The selected compounds were incorporated in an amount of 1 wt.% in a machine dishwashing composition containing 4 wt.% epsilon-phthalimido peroxyhexanoic acid as the bleaching agent. The pH values of the compositions were adjusted by the addition of a 50% solution of sodium hydroxide or concentrated sulfuric acid, as necessary.
as §1

Data set [3] is described as follows: Tarnish-monitoring experiments in a dishwasher, monitors visually ranked 0 to 6 against the Example 1 reference scale. As to conditions: general description, compositions containing the compound. The protocol: The wash program consisted of a pre-wash at 40°C, a mainwash at 55°C, two intermediate rinses, and a final rinse at 65°C.
The mainwash pH with these compositions was typically 8.7. Silver-plated spoons (2 per run) were the monitors used in the test. The spoons were supplied by Oneida Silversmiths, USA. The monitors were washed in a commercially available hand dishwash liquid and rinsed with deionized water and acetone before use. In the dishwasher the monitors were kept apart from each other in the cutlery basket. At the end of a single-run machine program, the monitors were visually analyzed for the presence of colours and the loss of gloss.
This ranking of spoons was used as a reference scale for all subsequent Examples.

Where [4] appears, read: Example 13, Tables 20 and 21, read-out: pKa of compounds.
Setting [5] is: Example 13: 1 wt.% compound, pH of composition 8.5.
[6] abbreviates: Example 13: 1 wt.% compound, pH of composition 11.0.
[7] abbreviates: Example 5: 1 wt.% compound, pH of composition 8.5.
The mark [8] stands for this setting: Example 5: 1 wt.% compound, pH of composition 11.0.
Setting [9] is: Example 5: 1 wt.% compound, pH of composition 8.6.
Setting [10] is: Example 13: 1 wt.% compound, pH of composition 8.6.

As a reminder, the pKa is the negative logarithm of the acid dissociation constant. Take `c1nnn[nH]1` [1,2,3,5-Tetrazole]: the pKa in data set [1] (setting [4]) is 8.4. The “pH of compositions in which the compound is effective” value in data set [2] (Example 13) is given as “greater than 9.4”. For the same molecule, the “effectiveness as a silver anti-tarnishing agent, in words” value in data set [2] (Example 13, pH of 8.5) was “not effective”; in data set [2] (Example 13, pH of 9.5 and greater), “effective”. Moreover, the “Effective Silver Anti-Tarnishing” value in data set [2] (setting [5]) was “No (A tarnish score of 3 or less was considered effective as a silver anti-tarnishing compound)”; in data set [2] (Example 13: 1 wt.% compound, pH of composition 9.5) it was “Yes (A tarnish score of 3 or less was considered effective as a silver anti-tarnishing compound)”; in data set [2] (Example 13: 1 wt.% compound, pH of composition 10.5), “Yes (A tarnish score of 3 or less was considered effective as a silver anti-tarnishing compound)”; in data set [2] (setting [6]) it was “Yes (A tarnish score of 3 or less was considered effective as a silver anti-tarnishing compound)”.
In data set [1], `c1ccc(-c2ncc[nH]2)cc1` [2-Phenylimidazole, reference compound] gave a pKa of 8.8. Also, the “Effective Silver Anti-Tarnishing” value in data set [2] (setting [7]), in data set [2] (setting [8]), in data set [2] (setting [5]) and in data set [2] (setting [6]) was “No (A tarnish score of 3 or less was considered effective as a silver anti-tarnishing compound)” each time. In addition, in data set [2] (Example 13, pH 11.0), the “prevention of silver tarnishing, in words” value was “did not prevent silver tarnishing”.
`Nc1nc[nH]n1` [3-amino-1,2,4-triazole] gave a pKa in data set [1] of 7.3. The “Effective Silver Anti-Tarnishing” value in data set [2] (Example 13: 1 wt.% compound, pH of composition 8.3) is “Yes (A tarnish score of 3 or less was considered effective as a silver anti-tarnishing compound)”.
`Nc1nn[nH]n1` [4-amino-1,2,3,5-tetrazole] yielded a pKa in data set [1] of 8.1. The “effectiveness as a silver anti-tarnishing agent, in words” value in data set [2] (Example 13, pH of 8.8) is reported as “not effective”. In data set [2] (Example 13: 1 wt.% compound, pH of composition 8.8), the “Effective Silver Anti-Tarnishing” value is given as “No (A tarnish score of 3 or less was considered effective as a silver anti-tarnishing compound)”.
Consider `O=[N+]([O-])c1ccc2cn[nH]c2c1` [6-Nitroindazole, reference compound], for which the pKa in data set [1] was found to be 6.8. Moreover, the “Effective Silver Anti-Tarnishing” value in data set [2] (setting [7]), in data set [2] (setting [8]), in data set [2] (setting [5]) and in data set [2] (setting [6]) was “No (A tarnish score of 3 or less was considered effective as a silver anti-tarnishing compound)” throughout.
In data set [1], `Nc1ncnc2nc[nH]c12` [Adenine] came in with a pKa of 7.2. The “prevention of silver tarnishing, in words” value in data set [2] (Example 5, pH 6.9) was “did not prevent tarnishing”; in data set [2] (Example 5, pH 8.6), “prevented silver tarnishing”. Further, the “Effective Silver Anti-Tarnishing” value in data set [2] (Example 5: 1 wt.% compound, pH of composition 6.9) is “No (A tarnish score of 3 or less was considered effective as a silver anti-tarnishing compound)”; in data set [2] (setting [9]), “Yes (A tarnish score of 3 or less was considered effective as a silver anti-tarnishing compound)”.
Consider `Oc1ncnc2[nH]ncc12` [Allopurinol], for which the pKa in data set [1] was 6.1. Further, the “Effective Silver Anti-Tarnishing” value in data set [2] (setting [9]) is listed as “Yes (A tarnish score of 3 or less was considered effective as a silver anti-tarnishing compound)”.
In data set [1], `N=C(N)NCCC[C@H](N)C(=O)O` [Arginine, reference compound] showed a pKa of 9.1. This molecule displayed a pKa of compounds in data set [1] of 9.1. Further, the “Effective Silver Anti-Tarnishing” value in data set [2] (setting [9]) and in data set [2] (setting [10]) was “No (A tarnish score of 3 or less was considered effective as a silver anti-tarnishing compound)” each time.
With `c1ccc2[nH]cnc2c1` [Benzimidazole], in data set [1], the pKa of compounds was determined as 5.5. The “Effective Silver Anti-Tarnishing” value in data set [2] (setting [10]) was “Yes (A tarnish score of 3 or less was considered effective as a silver anti-tarnishing compound)”.
`Nc1nc2nc[nH]c2c(=O)[nH]1` [Guanine] had a pKa in data set [1] of 6.7. For the same molecule, the “prevention of silver tarnishing, in words” value is given as “did not prevent tarnishing” in data set [2] (Example 5, pH 7.0) and “prevented silver tarnishing” in data set [2] (Example 5, pH 8.6). Moreover, the “Effective Silver Anti-Tarnishing” value in data set [2] (Example 5: 1 wt.% compound, pH of composition 7.0) is recorded as “No (A tarnish score of 3 or less was considered effective as a silver anti-tarnishing compound)”; in data set [2] (setting [9]) it was “Yes (A tarnish score of 3 or less was considered effective as a silver anti-tarnishing compound)”.
Take `N[C@@H](Cc1c[nH]cn1)C(=O)O` [Histidine]: the “Effective Silver Anti-Tarnishing” value in data set [2] (setting [10]) is recorded as “Yes (A tarnish score of 3 or less was considered effective as a silver anti-tarnishing compound)”.
`O=c1[nH]cnc2nc[nH]c12` [Hypoxanthine]: the pKa in data set [1] (pKa of compounds) stood at 6. The “Effective Silver Anti-Tarnishing” value in data set [2] (setting [9]) is on record as “Yes (A tarnish score of 3 or less was considered effective as a silver anti-tarnishing compound)”.
Regarding `c1c[nH]cn1` [Imidazole], the pKa in data set [1] (setting [4]) came to 6.9. Also, the “Effective Silver Anti-Tarnishing” value in data set [2] (setting [10]) is recorded as “Yes (A tarnish score of 3 or less was considered effective as a silver anti-tarnishing compound)”.
With `c1cn[nH]c1` [Pyrazole, reference compound], the “prevention of heavy tarnishing of silver and silver-plated articles, in words” value (“prevention of heavy tarnishing … in words” for short) in data set [3] is reported as “substantially ineffective”. The molecule also gave a pKa in data set [1] of 11.5. Further, the “Effective Silver Anti-Tarnishing” value in data set [2] (setting [9]) and in data set [2] (setting [10]) was “No (A tarnish score of 3 or less was considered effective as a silver anti-tarnishing compound)” each time.
Regarding `c1cc[nH]c1` [Pyrrole, reference compound], the “prevention of heavy tarnishing … in words” value in data set [3] is on record as “substantially ineffective”. Moreover, the “Effective Silver Anti-Tarnishing” value in data set [2] (setting [9]) and in data set [2] (setting [10]) was “No (A tarnish score of 3 or less was considered effective as a silver anti-tarnishing compound)” each time.
Turning to `O=c1[nH]c(=O)c2[nH]c(=O)[nH]c2[nH]1` [Uric Acid], the pKa in data set [1] stood at 4.6. Besides, the “Effective Silver Anti-Tarnishing” value in data set [2] (setting [9]) was “Yes (A tarnish score of 3 or less was considered effective as a silver anti-tarnishing compound)”.
For `O=c1[nH]c(=O)c2[nH]cnc2[nH]1` [Xanthine] the same measures were 7 and “Yes (A tarnish score of 3 or less was considered effective as a silver anti-tarnishing compound)”.
For `c1ccc2[nH]ncc2c1` [indazole, reference compound], the “prevention of heavy tarnishing … in words” value in data set [3] is listed as “substantially ineffective”.
As for `c1cncnc1` [pyrimidine, reference compound], in data set [3], the “prevention of heavy tarnishing … in words” value is listed as “substantially ineffective”.
